Consider four compounds from paper PMC12136037, “Type II kinase inhibitors that target Parkinson’s disease–associated LRRK2” (Science Advances, 2025).

Assay in all cases: DSF 100 kinase selectivity screen;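 note: compound tested at 20 µM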
Type in all cases: binding

Experiment [1] has as its target T1, ~100 representative kinases (Homo sapiens, UniProt O15075).
T1 construct: Recombinant protein kinase domains with a concentration of 2 μM
The note with it: Protein DCAMKL1; average of three replicates. A digest of the protocol: (§1)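 Each kinase domain, at 2 μM, is mixed with 20 μM test compound and SYPRO Orange in Hepes (20 mM, pH 7.5) with 500 mM NaCl. Temperature is then raised at 3°C/min and fluorescence-monitored unfolding yields the melting temperature change, ΔTm in degrees Celsius.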

In experiment [2] the target is T2, ~100 representative kinases (Homo sapiens, UniProt Q9H2X6).
T2 construct: Recombinant protein kinase domains with a concentration of 2 μM
T2 sequence (Q9H2X6 whole entry, the tested form may be a part): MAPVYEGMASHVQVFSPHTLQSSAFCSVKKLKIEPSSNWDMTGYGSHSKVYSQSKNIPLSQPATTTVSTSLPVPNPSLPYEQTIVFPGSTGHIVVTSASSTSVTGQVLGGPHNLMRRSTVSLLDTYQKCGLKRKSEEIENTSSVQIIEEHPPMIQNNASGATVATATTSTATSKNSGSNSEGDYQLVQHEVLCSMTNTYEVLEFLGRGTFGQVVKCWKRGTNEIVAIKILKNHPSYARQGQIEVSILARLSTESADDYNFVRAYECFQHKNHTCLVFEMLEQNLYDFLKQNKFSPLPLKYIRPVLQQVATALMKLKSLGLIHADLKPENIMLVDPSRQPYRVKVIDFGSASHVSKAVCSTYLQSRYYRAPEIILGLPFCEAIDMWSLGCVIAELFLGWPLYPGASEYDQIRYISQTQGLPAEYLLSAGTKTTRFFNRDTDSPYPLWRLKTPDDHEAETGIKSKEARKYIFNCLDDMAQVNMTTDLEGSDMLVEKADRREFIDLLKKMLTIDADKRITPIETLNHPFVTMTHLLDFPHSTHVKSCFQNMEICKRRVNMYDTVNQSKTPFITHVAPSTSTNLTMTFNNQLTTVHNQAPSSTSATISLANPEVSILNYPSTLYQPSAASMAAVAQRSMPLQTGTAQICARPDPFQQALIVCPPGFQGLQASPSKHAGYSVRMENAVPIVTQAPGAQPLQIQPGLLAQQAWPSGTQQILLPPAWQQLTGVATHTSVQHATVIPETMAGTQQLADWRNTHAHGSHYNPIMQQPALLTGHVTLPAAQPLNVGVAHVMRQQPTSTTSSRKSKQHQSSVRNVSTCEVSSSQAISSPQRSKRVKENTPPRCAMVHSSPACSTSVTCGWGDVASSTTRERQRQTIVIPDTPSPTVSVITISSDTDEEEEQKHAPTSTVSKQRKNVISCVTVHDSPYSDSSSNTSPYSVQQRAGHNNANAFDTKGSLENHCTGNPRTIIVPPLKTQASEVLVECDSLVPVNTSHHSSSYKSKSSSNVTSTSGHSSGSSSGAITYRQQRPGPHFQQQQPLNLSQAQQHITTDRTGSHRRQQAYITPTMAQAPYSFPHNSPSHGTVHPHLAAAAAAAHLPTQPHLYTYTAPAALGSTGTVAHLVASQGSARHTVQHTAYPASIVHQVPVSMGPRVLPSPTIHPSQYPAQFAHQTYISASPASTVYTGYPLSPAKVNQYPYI
The note with it: protein HIPK2; average of three replicates. The method in brief:
as §1

Experiment [3] addresses T3, ~100 representative kinases (Homo sapiens, UniProt Q15375).
T3 construct: Recombinant protein kinase domains with a concentration of 2 μM
The conditions noted are these: Protein EPHA7; average of three replicates. A digest of the protocol:
as §1

For experiment [4], the target named is T4, ~100 representative kinases (Homo sapiens, UniProt P15056).
T4 construct: Recombinant protein kinase domains with a concentration of 2 μM
T4 sequence (P15056 whole entry, the tested form may be a part): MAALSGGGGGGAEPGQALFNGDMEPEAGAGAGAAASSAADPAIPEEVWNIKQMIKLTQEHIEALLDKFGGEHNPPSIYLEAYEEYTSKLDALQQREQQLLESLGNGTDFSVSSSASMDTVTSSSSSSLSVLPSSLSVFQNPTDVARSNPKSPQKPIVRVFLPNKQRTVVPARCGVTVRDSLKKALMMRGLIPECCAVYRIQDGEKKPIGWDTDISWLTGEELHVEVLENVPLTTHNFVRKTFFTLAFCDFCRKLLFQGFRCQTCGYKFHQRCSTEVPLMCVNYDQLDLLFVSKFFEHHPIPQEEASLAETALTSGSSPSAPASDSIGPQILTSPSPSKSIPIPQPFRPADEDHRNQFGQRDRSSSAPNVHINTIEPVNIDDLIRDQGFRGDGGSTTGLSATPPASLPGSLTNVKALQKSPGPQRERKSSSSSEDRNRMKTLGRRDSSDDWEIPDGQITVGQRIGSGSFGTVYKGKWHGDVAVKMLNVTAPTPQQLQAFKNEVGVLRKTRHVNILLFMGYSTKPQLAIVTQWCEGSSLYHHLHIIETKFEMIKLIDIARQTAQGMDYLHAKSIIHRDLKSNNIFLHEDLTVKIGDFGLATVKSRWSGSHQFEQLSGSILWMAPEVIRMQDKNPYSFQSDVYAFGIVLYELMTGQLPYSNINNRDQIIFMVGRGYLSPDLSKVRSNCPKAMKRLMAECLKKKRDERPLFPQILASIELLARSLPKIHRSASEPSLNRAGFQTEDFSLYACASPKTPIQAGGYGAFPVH
The note with it: Protein BRAF; average of three replicates. The method in brief:
as §1

Experiment [5] deals with T5, ~100 representative kinases (Homo sapiens, UniProt P21802).
T5 construct: Recombinant protein kinase domains with a concentration of 2 μM
The note with it: protein FGFR2; average of three replicates. A digest of the protocol:
as §1

The target of experiment [6] is T6, ~100 representative kinases (Homo sapiens, UniProt P49674).
T6 construct: Recombinant protein kinase domains with a concentration of 2 μM
T6 sequence (P49674 whole entry, the tested form may be a part): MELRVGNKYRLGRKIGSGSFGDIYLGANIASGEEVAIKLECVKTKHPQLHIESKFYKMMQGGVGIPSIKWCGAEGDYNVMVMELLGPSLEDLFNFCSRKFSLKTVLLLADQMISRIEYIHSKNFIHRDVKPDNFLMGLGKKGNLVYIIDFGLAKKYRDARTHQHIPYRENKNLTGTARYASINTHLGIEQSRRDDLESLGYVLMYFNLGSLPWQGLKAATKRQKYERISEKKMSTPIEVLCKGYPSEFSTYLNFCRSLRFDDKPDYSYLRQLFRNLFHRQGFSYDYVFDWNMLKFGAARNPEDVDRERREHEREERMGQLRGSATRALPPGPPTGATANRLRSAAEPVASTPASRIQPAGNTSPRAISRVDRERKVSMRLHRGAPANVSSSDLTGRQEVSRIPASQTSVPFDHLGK
The note with it: Protein CSNK1E; average of three replicates. A digest of the protocol: as §1

Experiment [7] concerns the target T7, ~100 representative kinases (Homo sapiens, UniProt P49761).
T7 construct: Recombinant protein kinase domains with a concentration of 2 μM
The conditions noted are these: Protein CLK3; average of three replicates. The method in brief:
as §1

Experiment [8] has as its target T8, ~100 representative kinases (Homo sapiens, UniProt Q99640).
T8 construct: Recombinant protein kinase domains with a concentration of 2 μM
T8 sequence (Q99640 1-499): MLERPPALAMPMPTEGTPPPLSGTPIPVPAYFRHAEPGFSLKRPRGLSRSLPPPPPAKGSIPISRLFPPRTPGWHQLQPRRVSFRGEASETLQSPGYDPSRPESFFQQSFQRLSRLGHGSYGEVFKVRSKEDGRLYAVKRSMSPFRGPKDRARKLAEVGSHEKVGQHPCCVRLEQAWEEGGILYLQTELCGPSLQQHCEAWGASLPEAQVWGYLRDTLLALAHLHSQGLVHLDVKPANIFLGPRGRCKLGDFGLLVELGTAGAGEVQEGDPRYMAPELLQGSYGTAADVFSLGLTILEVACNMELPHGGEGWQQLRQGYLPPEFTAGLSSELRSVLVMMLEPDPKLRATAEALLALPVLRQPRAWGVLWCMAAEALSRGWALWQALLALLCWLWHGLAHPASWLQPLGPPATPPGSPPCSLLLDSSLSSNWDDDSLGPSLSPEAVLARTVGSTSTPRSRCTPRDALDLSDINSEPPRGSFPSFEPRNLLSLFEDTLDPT
The conditions noted are these: protein PKMYT1; average of three replicates. A digest of the protocol:
as §1

The target in experiment [9] is T9, ~100 representative kinases (Homo sapiens, UniProt O14733).
T9 construct: Recombinant protein kinase domains with a concentration of 2 μM
T9 sequence (O14733 1-419): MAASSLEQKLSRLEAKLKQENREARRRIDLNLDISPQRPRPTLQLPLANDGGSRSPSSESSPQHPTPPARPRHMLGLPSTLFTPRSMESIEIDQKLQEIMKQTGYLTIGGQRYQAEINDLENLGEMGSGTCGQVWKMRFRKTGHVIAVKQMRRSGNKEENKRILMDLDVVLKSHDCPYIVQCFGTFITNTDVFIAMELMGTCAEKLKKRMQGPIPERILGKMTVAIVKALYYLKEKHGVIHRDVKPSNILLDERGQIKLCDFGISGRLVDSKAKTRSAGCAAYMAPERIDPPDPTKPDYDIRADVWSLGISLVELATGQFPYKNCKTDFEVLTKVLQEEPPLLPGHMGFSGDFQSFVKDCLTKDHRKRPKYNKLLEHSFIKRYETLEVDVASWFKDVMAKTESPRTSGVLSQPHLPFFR
The conditions noted are these: protein MAP2K7; average of three replicates. A digest of the protocol:
as §1

Experiment [10] addresses T10, ~100 representative kinases (Homo sapiens, UniProt P52564).
T10 construct: Recombinant protein kinase domains with a concentration of 2 μM
T10 sequence (P52564 1-334): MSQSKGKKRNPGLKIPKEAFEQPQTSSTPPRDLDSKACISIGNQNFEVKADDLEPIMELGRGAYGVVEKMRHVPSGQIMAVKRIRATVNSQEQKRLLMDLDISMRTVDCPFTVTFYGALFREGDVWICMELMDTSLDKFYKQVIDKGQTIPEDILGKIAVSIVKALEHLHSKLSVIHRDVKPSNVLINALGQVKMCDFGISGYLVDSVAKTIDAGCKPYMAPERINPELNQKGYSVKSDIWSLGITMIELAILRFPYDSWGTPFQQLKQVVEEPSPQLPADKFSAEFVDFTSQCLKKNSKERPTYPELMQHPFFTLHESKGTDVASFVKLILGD
The note with it: protein MAP2K6; average of three replicates. A digest of the protocol:
as §1

Experiment [11] addresses T11, ~100 representative kinases (Homo sapiens, UniProt P24941).
T11 construct: Recombinant protein kinase domains with a concentration of 2 μM
The conditions noted are these: Protein CDK2; average of three replicates. The method in brief:
as §1

The target of experiment [12] is T12, ~100 representative kinases (Homo sapiens, UniProt P54756).
T12 construct: Recombinant protein kinase domains with a concentration of 2 μM
T12 sequence (P54756 25-1037): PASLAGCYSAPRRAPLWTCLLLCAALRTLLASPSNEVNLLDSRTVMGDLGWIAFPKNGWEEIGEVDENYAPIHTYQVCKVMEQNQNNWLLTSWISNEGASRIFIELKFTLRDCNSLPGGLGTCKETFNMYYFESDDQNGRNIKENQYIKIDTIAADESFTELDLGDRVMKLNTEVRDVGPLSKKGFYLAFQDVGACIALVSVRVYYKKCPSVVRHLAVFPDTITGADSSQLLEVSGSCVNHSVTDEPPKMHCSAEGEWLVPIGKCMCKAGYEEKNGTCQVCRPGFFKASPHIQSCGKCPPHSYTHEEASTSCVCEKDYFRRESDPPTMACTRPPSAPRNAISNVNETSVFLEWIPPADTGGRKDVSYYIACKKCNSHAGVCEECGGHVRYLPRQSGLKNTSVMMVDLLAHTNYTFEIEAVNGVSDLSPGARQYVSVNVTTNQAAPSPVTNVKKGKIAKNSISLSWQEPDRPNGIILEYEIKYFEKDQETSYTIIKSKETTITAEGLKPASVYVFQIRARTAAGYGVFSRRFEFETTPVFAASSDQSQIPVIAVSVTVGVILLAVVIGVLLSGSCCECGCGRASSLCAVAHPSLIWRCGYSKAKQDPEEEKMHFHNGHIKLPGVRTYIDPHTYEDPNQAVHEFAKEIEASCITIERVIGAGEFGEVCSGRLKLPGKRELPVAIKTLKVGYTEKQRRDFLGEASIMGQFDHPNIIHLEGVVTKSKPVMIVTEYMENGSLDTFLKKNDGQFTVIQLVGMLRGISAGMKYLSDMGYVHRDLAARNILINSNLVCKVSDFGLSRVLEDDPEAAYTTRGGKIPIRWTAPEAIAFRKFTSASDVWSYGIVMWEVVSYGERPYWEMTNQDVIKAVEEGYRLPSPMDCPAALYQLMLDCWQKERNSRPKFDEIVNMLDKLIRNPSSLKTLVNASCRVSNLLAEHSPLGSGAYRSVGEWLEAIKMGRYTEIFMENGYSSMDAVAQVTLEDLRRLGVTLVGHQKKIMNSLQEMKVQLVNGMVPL
The conditions noted are these: Protein EPHA5; average of three replicates. A digest of the protocol: as §1

T1 sequence (O15075 whole entry, the tested form may be a part): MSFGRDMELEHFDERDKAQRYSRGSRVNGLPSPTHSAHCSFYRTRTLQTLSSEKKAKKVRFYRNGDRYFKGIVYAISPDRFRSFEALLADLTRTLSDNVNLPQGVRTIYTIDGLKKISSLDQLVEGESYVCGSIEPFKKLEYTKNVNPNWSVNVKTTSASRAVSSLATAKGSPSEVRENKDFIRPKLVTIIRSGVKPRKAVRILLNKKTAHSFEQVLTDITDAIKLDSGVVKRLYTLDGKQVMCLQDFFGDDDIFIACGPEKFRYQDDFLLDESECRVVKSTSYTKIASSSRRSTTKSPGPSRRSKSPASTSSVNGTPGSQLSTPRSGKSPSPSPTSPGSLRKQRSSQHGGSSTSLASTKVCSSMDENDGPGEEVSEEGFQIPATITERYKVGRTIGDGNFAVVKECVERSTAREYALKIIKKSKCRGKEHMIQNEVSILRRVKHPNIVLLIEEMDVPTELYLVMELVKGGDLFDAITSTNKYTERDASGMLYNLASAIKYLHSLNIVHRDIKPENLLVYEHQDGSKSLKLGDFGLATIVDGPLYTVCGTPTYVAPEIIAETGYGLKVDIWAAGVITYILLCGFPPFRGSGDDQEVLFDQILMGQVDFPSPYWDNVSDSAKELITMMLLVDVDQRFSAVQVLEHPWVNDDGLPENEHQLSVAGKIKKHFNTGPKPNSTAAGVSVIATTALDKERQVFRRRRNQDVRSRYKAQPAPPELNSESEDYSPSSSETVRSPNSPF
T3 sequence (Q15375 28-998): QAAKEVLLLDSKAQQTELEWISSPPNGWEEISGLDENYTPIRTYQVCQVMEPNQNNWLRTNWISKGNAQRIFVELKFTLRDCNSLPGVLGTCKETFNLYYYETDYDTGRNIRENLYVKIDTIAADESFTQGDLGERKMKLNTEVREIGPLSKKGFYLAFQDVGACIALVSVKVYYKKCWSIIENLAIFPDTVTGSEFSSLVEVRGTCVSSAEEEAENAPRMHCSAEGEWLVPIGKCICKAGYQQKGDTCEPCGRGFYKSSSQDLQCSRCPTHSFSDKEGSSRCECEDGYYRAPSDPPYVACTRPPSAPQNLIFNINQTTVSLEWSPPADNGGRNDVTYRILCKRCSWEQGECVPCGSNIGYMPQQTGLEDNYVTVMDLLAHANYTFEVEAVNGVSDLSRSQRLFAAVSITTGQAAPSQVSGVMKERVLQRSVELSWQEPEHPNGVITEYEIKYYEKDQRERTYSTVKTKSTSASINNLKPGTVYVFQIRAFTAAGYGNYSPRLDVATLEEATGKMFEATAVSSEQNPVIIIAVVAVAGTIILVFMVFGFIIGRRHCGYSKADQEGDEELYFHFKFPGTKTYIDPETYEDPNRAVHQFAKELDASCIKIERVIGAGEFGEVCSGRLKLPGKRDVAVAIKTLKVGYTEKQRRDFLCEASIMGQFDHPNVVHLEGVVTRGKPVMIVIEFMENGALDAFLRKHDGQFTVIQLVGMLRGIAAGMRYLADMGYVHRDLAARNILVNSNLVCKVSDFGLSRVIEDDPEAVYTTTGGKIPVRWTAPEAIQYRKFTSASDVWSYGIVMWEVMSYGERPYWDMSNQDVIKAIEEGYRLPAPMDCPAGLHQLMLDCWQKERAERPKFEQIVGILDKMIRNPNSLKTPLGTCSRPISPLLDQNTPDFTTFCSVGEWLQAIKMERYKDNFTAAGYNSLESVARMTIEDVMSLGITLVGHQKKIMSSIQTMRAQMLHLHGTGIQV

For `CC(=O)N1CCN(c2nc(Cl)nc3[nH]cc(-c4cccc(NC(=O)Nc5cc(C(C)(C)C)nn5-c5ccc(C)cc5)c4)c23)CC1` [Compound 31], the dTm is recorded as 2.11 K in experiment [1]; 2.23 K in [2]; 0.34 K in experiment [3]; 4.38 K in experiment [4]; -0.09 K in [5]; -1.75 K in experiment [6]. The dTm in experiment [7] is reported as 3.34 K; in experiment [8], -0.30 K; in [9], 2.84 K; in [10], 0.27 K; in [11] it was 2.43 K; in [12], 1.56 K.
As to `CCSc1nc(NC)c2c(-c3cccc(NC(=O)Nc4cc(C(C)(C)C)nn4-c4ccc(C)cc4)c3)c[nH]c2n1` [Compound 32], the dTm in experiment [1] is reported as 0.67 K; in experiment [2], 0.31 K; in experiment [3], 0.38 K; in experiment [4], 0.90 K; in [5], -0.15 K; in experiment [6] it was -0.41 K. The dTm in [7] is listed as 0.50 K; in [8], 0.22 K; in [9] it was 0.27 K; in [10] it was 0.13 K; in experiment [11], 0.83 K; in [12] it was 0.04 K.
For `COc1cc(C(=O)N2CCOCC2)c(F)cc1Nc1nc(N(C)C)c2c(Cl)c[nH]c2n1` [Compound 36], the dTm in experiment [1] was 2.05 K; in experiment [2], 0.93 K; in [3] it was 2.27 K; in experiment [4], -0.49 K; in [5] it was -0.36 K; in experiment [6], 4.43 K. The dTm in [7] is recorded as 2.75 K; in [8] it was -0.59 K; in experiment [9], 2.56 K; in [10] it was 9.56 K; in [11], -0.66 K; in [12] it was -0.96 K.
`COc1cc(S(C)(=O)=O)ccc1Nc1nc(N(C)C)c2c(Cl)c[nH]c2n1` [Compound 37]: the dTm in [1] is on record as -0.34 K; in experiment [2] it was 0.11 K; in experiment [3], 0.12 K; in experiment [4] it was 0.14 K; in experiment [5], -0.14 K; in experiment [6], 1.77 K. Moreover, the dTm in experiment [7] was 1.12 K; in [8], -0.22 K; in [9] it was -0.81 K; in experiment [10], 5.52 K; in experiment [11], -0.37 K; in experiment [12], -0.48 K.
